In US9523100B2, “Pesticidal compositions and related methods” (DOW AGROSCIENCES LLC, priority 2013, dated 2016):
Like-named read-outs stand apart in the source and are kept apart here.

Legend:
[1] = test system: Green Peach Aphid (GPA) (Myzus persicae) (MYZUPE); experiment: Bioassay for Green Peach Aphid (GPA), foliar spray on cabbage seedlings; format: in vivo; details: 72 h, read-out: GPA 200 ppm, % Control (or Mortality) rating
Method in brief: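 Cabbage seedlings infested with 20-50 GPA (wingless adults and nymphs) one day before spraying to runoff with 200 ppm compound; four pots per treatment. Live aphids counted after three days at ~25° C; percent control by Abbott's correction against solvent-sprayed plants.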

[2] = test system: Sweetpotato Whitefly-Crawler (WF) (Bemisia tabaci) (BEMITA); experiment: Insecticidal test for Sweetpotato Whitefly-Crawler (WF) in foliar spray assay on cotton plants; format: in vivo; details: 216 h, read-out: WF 200 ppm, % Control (or Mortality) rating
Method in brief: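 Cotton plants carrying 200–400 whitefly eggs sprayed to run-off on both leaf surfaces at 200 ppm (acetone/0.025% Tween 20), four plants per treatment. After 9 days at about 25 °C, live 3rd–4th instar nymphs counted; Abbott-corrected percent control versus solvent check.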

[3] = 200 ppm foliar spray on cabbage seedlings, graded after three days, Abbott corrected % control
[4] = 200 ppm foliar spray on cotton plants, graded after 9 days, Abbott corrected % control

SMILES | mortality at 200 ppm [1, 3] | mortality at 200 ppm [2, 4] | mortality at 200 ppm ([1]; foliar) | mortality at 200 ppm ([2]; foliar)
CN(C(=O)CCN1CCSC1=O)c1cn(-c2cccnc2)nc1Cl [Compound F38, N-(3-Chloro-1-(pyridin-3-yl)-1H-pyrazol-4-yl)-N-methyl-3-(2-oxothiazolidin-3-yl)propanamide] | 80 to 100% | 80 to 100% | – | –
CC(C)(C)[Si](C)(C)N1CC(CCCC(=O)O)C1=O (centres unmarked) [Compound C5, 4-(1-(tert-Butyldimethylsilyl)-2-oxoazetidin-3-yl)butanoic acid] | – | – | 0 to 80% | < 0%
CCN(C(=O)CCNC(=O)CC(F)(F)F)c1cn(-c2cccnc2)nc1Cl [Compound F63, N-(3-((3-Chloro-1-(pyridin-3-yl)-1H-pyrazol-4-yl)(ethyl)amino)-3-oxopropyl)-3,3,3-trifluoropropanamide] | 80 to 100% | 80 to 100% | – | –
CCN(C(=O)CCN(CC(F)F)C(=O)CC1CC1)c1cn(-c2cccnc2)nc1Cl [Compound F125, N-(3-Chloro-1-(pyridin-3-yl)-1H-pyrazol-4-yl)-3-(2-cyclopropyl-N-(2,2-difluoroethyl)acetamido)-N-ethylpropanamide] | 80 to 100% | 80 to 100% | – | –
CCN(C(=O)C1CN(C(=O)OC(C)(C)C)C1)c1cn(-c2cccnc2)nc1Cl [Compound F26] | 80 to 100% | 0 to 80% | – | –
CCN(C(=O)C1CCN(C(=O)c2cccnc2)C1)c1cn(-c2cccnc2)nc1Cl (centres unmarked) [FA12, N-(3-Chloro-1-(pyridin-3-yl)-1H-pyrazol-4-yl)-N-ethyl-1-nicotinoylpyrrolidine-3-carboxamide] | 0 to 80% | 0 to 80% | – | –
CCN(C(=O)CC/C(C)=N\OCCC1CC1(F)F)c1cn(-c2cccnc2)nc1Cl (centres unmarked) [FA49, (Z)-N-(3-Chloro-1-(pyridin-3-yl)-1H-pyrazol-4-yl)-4-((2-(2,2-difluorocyclopropyl)ethoxy)imino)-N-ethylpentanamide] | 0 to 80% | 80 to 100% | – | –
CCN(C(=O)CC/C(=N\OCCCC(F)(F)F)c1cccs1)c1cn(-c2cccnc2)nc1Cl [FA26, (E)-N-(3-Chloro-1-(pyridin-3-yl)-1H-pyrazol-4-yl)-N-ethyl-4-(thiophen-2-yl)-4-((4,4,4-trifluorobutoxy)imino)butanamide] | 0 to 80% | 80 to 100% | – | –
CCN(C(=O)C1CN(C(=O)CC(F)(F)F)C1)c1cn(-c2cccnc2)nc1Cl [Compound P24, N-(3-Chloro-1-(pyridin-3-yl)-1H-pyrazol-4-yl)-N-ethyl-1-(3,3,3-trifluoropropanoyl)azetidine-3-carboxamide] | 80 to 100% | 0 to 80% | – | –
CCN(C(=O)CCN)c1cn(-c2cccnc2)nc1Cl [Compound C2, 3-amino-N-(3-chloro-1-(pyridin-3-yl)-1H-pyrazol-4-yl)-N-ethylpropanamide] | 0 to 80% | 80 to 100% | – | –
CCN(C(=O)CC/C(=N/OCCCC(F)(F)F)c1cccs1)c1cn(-c2cccnc2)nc1Cl [FA27, (Z)-N-(3-Chloro-1-(pyridin-3-yl)-1H-pyrazol-4-yl)-N-ethyl-4-(thiophen-2-yl)-4-((4,4,4-trifluorobutoxy)imino)butanamide] | 0 to 80% | 0 to 80% | – | –
CCN(C(=O)CCCC1CN(CC2CC2(F)F)C1=O)c1cn(-c2cccnc2)nc1Cl (centres unmarked) [Compound F104, N-(3-Chloro-1-(pyridin-3-yl)-1H-pyrazol-4-yl)-4-(1-((2,2-difluorocyclopropyl)methyl)-2-oxoazetidin-3-yl)-N-ethylbutanamide] | 80 to 100% | 80 to 100% | – | –
CCN(C(=O)CCCC(C)=O)c1cn(-c2cncc(F)c2)nc1C [FA70, N-Ethyl-N-(1-(5-fluoropyridin-3-yl)-3-methyl-1H-pyrazol-4-yl)-5-oxohexanamide] | 0 to 80% | 80 to 100% | – | –
CCN(C(=O)CC/C(=N\OCC1CC1(F)F)c1cccs1)c1cn(-c2cccnc2)nc1Cl (centres unmarked) [FA38, (E)-N-(3-Chloro-1-(pyridin-3-yl)-1H-pyrazol-4-yl)-4-(((2,2-difluorocyclopropyl)methoxy)imino)-N-ethyl-4-(thiophen-2-yl)butanamide] | 0 to 80% | 0 to 80% | – | –
CCN(C(=O)CC/C(C)=N/OCCC1CC1(F)F)c1cn(-c2cccnc2)nc1Cl (centres unmarked) [FA50, (E)-N-(3-Chloro-1-(pyridin-3-yl)-1H-pyrazol-4-yl)-4-((2-(2,2-difluorocyclopropyl)ethoxy)imino)-N-ethylpentanamide] | 80 to 100% | 80 to 100% | – | –
CCN(C(=O)CCNC(=O)CCC(F)(F)F)c1cn(-c2cccnc2)nc1Cl [Compound F12, N-(3-((3-Chloro-1-(pyridin-3-yl)-1H-pyrazol-4-yl)(ethyl)amino)-3-oxopropyl)-4,4,4-trifluorobutanamide] | 80 to 100% | 80 to 100% | – | –

SMILES | mortality at 200 ppm [1, 3] | mortality at 200 ppm [2, 4] | mortality at 200 ppm ([1]; foliar) | mortality at 200 ppm ([2]; foliar)
CC(=O)N[C@@H]1C=C[C@H](C(=O)N(C)c2cn(-c3cccnc3)nc2Cl)C1 [Compound F86, (1R,4S)-4-acetamido-N-(3-chloro-1-(pyridin-3-yl)-1H-pyrazol-4-yl)-N-methyl-cyclopent-2-enecarboxamide] | 80 to 100% | 80 to 100% | – | –
CCN(C(=O)CCn1ccc(C(C)=O)n1)c1cn(-c2cccnc2)nc1Cl [FA68, 3-(3-Acetyl-1H-pyrazol-1-yl)-N-(3-chloro-1-(pyridin-3-yl)-1H-pyrazol-4-yl)-N-ethylpropanamide] | < 0% | 80 to 100% | – | –
CCN(C(=O)C1CN(C(=O)C(F)(F)F)C1)c1cn(-c2cccnc2)nc1Cl [FA14, N-(3-Chloro-1-(pyridin-3-yl)-1H-pyrazol-4-yl)-N-ethyl-1-(2,2,2-trifluoroacetyl)azetidine-3-carboxamide] | 80 to 100% | 80 to 100% | – | –
CCN(C(=O)CCC(=O)N(C)CC#N)c1cn(-c2cccnc2)nc1Cl [Compound F55, N1-(3-Chloro-1-(pyridin-3-yl)-1H-pyrazol-4-yl)-N4-(cyanomethyl)-N1-ethyl-N4-methylsuccinamide] | 0 to 80% | 80 to 100% | – | –
CCN(C(=O)CC1CNC1=O)c1cn(-c2cccnc2)nc1Cl (centres unmarked) [Compound F71, N-(3-chloro-1-(pyridin-3-yl)-1H-pyrazol-4-yl)-N-ethyl-2-(2-oxoazetidin-3-yl)acetamide] | 80 to 100% | 80 to 100% | – | –
CCN(C(=O)CC(C)=O)c1cn(-c2cccnc2)nc1Cl [FA66, N-(3-chloro-1-(pyridin-3-yl)-1H-pyrazol-4-yl)-N-ethyl-3-oxobutanamide] | 80 to 100% | 80 to 100% | – | –
CN(C(=O)CCC(=O)N1CCCC1)c1cn(-c2cccnc2)nc1Cl [Compound F37, N-(3-Chloro-1-(pyridin-3-yl)-1H-pyrazol-4-yl)-N-methyl-4-oxo-4-(pyrrolidin-1-yl)butanamide] | 0 to 80% | 80 to 100% | – | –
CCN(C(=O)C(C)OC(=O)CC(F)(F)F)c1cn(-c2cccnc2)nc1Cl (centres unmarked) [FA74, 1-((3-Chloro-1-(pyridin-3-yl)-1H-pyrazol-4-yl)(ethyl)amino)-1-oxopropan-2-yl 3,3,3-trifluoropropanoate] | 80 to 100% | 0 to 80% | – | –
CCN(C(=O)CC/C(C)=N/Oc1cc(C(F)(F)F)ccn1)c1cn(-c2cccnc2)nc1Cl [Compound F36, (E/Z)-N-(3-Chloro-1-(pyridin-3-yl)-1H-pyrazol-4-yl)-N-ethyl-4-(((4-(trifluoromethyl)pyridin-2-yl)oxy)imino)pentanamide] | 80 to 100% | 80 to 100% | – | –
CCN(C(=O)CCNCC(F)F)c1cn(-c2cccnc2)nc1Cl [Compound C14, N-(3-chloro-1-(pyridin-3-yl)-1H-pyrazol-4-yl)-3-((2,2-difluoroethyl)amino)-N-ethylpropanamide] | 80 to 100% | 80 to 100% | – | –
CCN(C(=O)C1CCC(=O)C1)c1cn(-c2cncc(F)c2)nc1C (centres unmarked) [FA71, N-Ethyl-N-(1-(5-fluoropyridin-3-yl)-3-methyl-1H-pyrazol-4-yl)-3-oxocyclopentanecarboxamide] | 0 to 80% | 0 to 80% | – | –
CCN(C(=O)CCNC(=O)C1CC1(F)F)c1cn(-c2cccnc2)nc1Cl (centres unmarked) [Compound F56, N-(3-((3-Chloro-1-(pyridin-3-yl)-1H-pyrazol-4-yl)(ethyl)amino)-3-oxopropyl)-2,2-difluorocyclopropanecarboxamide] | 80 to 100% | 80 to 100% | – | –
CCN1CC(CCC(=O)N(CC)c2cn(-c3cccnc3)nc2Cl)C1=O (centres unmarked) [Compound F103, N-(3-Chloro-1-(pyridin-3-yl)-1H-pyrazol-4-yl)-N-ethyl-3-(1-ethyl-2-oxoazetidin-3-yl)propanamide] | 80 to 100% | 80 to 100% | – | –
CCN(C(=O)CCC(=O)N(C)OC)c1cn(-c2cccnc2)nc1Cl [Compound F78, N1-(3-Chloro-1-(pyridin-3-yl)-1H-pyrazol-4-yl)-N1-ethyl-N4-methoxy-N4-methylsuccinamide] | 80 to 100% | 80 to 100% | – | –
CC(=O)N[C@H]1C=C[C@@H](C(=O)N(C)c2cn(-c3cccnc3)nc2Cl)C1 [Compound F24, (1S,4R)-4-acetamido-N-(3-chloro-1-(pyridin-3-yl)-1H-pyrazol-4-yl)-N-methyl-cyclopent-2-enecarboxamide] | 80 to 100% | 80 to 100% | – | –
